Assay results published in patent US11840686B2, “Modulation of prekallikrein (PKK) expression” (Ionis Pharmaceuticals, Inc., priority 2013, dated 2023).
Strand notation (5' to 3'): a small letter for the sugar, then the base; units joined by * are phosphorothioate-linked, units joined directly phosphodiester-linked; [ ] holds rarer units or linkages, { } end groups; capitals alone tell only the bases. e = 2'-O-(2-methoxyethyl) (MOE); [5mC] = 5-methylcytosine; d = 2'-deoxy (DNA)

System: human PKK mRNA
Assay: Antisense inhibition of human PKK mRNA in HepaRG cells, 3,000 nM (Example 1)
Type: cell-based
Settings: PKK mRNA, HepaRG cells, 3,000 nM, electroporation, ~24 h, relative to untreated control cells
Protocol: Antisense oligonucleotides were designed targeting a PKK nucleic acid and were tested for their effects on PKK mRNA in vitro. HepaRG™ cells, which are terminally differentiated hepatic cells derived from a human hepatic progenitor cell line and retain many characteristics of primary human hepatocytes (Lubberstedt M. et al., J. Pharmacol. Toxicol. Methods 2011 63: 59-68), were used in the screen.
The chimeric antisense oligonucleotides in the tables below were designed as 5-10-5 MOE gapmers. The gapmers are 20 nucleosides in length, wherein the central gap segment comprises of ten 2′-deoxynucleosides and is flanked by wing segments on the 5′ direction and the 3′ direction comprising five nucleosides each. Each nucleoside in the 5′ wing segment and each nucleoside in the 3′ wing segment has a 2′-O-methoxyethyl modification. The internucleoside linkages throughout each gapmer are phosphorothioate linkages. All cytosine residues throughout each gapmer are 5-methylcytosines. “Start site” indicates the 5′-most nucleoside to which the gapmer is targeted in the human gene sequence. “Stop site” indicates the 3′-most nucleoside to which the gapmer is targeted in the human gene sequence.
Cultured HepaRG™ cells at a density of 20,000 cells per well were transfected using electroporation with 3,000 nM antisense oligonucleotide. After a treatment period of approximately 24 hours, RNA was isolated from the cells and PKK mRNA levels were measured by quantitative real-time PCR. Human primer probe set RTS3454 (forward sequence […], designated herein as SEQ ID NO: 20; reverse sequence […], designated herein as SEQ ID NO: 21; probe sequence […], designated herein as SEQ ID NO: 22) was used to measure mRNA levels. PKK mRNA levels were adjusted according to total RNA content, as measured by RIBOGREEN®. The antisense oligonucleotides were tested in a series of experiments that had similar culture conditions. Results are presented as percent inhibition of PKK, relative to untreated control cells.

Row | Substance | % inhibition (Table 1) | % inhibition (Table 2)
1 | 530979 (antisense eG*eG*eT*eT*eA*dA*dA*dA*dG*dG*d[5mC]*dT*dA*dT*dA*eT*e[5mC]*e[5mC]*eA*eG) [compound 530979] | 35% | –
2 | 530980 (antisense eT*eT*eG*e[5mC]*eA*dG*dG*dT*dT*dA*dA*dA*dA*dG*dG*e[5mC]*eT*eA*eT*eA) [compound 530980] | 29% | –
3 | 530981 (antisense eT*eT*e[5mC]*eT*eT*dT*dT*dG*d[5mC]*dA*dG*dG*dT*dT*dA*eA*eA*eA*eG*eG) [compound 530981] | 0% | –
4 | 530982 (antisense eT*eA*eA*eA*eG*dT*dT*d[5mC]*dT*dT*dT*dT*dG*d[5mC]*dA*eG*eG*eT*eT*eA) [compound 530982] | 0% | –
5 | 530983 (antisense eA*eT*eG*eG*e[5mC]*dA*dG*dG*dG*dT*dT*d[5mC]*dA*dG*dG*eT*eA*eA*eA*eG) [compound 530983] | 9% | –
6 | 530984 (antisense eT*eT*eA*eG*eA*dA*dT*dG*dG*d[5mC]*dA*dG*dG*dG*dT*eT*e[5mC]*eA*eG*eG) [compound 530984] | 25% | –
7 | 530985 (antisense eA*eA*eA*eT*eT*dT*dT*dA*dG*dA*dA*dT*dG*dG*d[5mC]*eA*eG*eG*eG*eT) [compound 530985] | 32% | –
8 | 530986 (e[5mC]*eG*eG*eG*eT*dA*dA*dA*dT*dT*dT*dT*dA*dG*dA*eA*eT*eG*eG*e[5mC]; antisense) [compound 530986] | 62% | –
9 | 530987 (eA*e[5mC]*eT*e[5mC]*e[5mC]*d[5mC]*dG*dG*dG*dT*dA*dA*dA*dT*dT*eT*eT*eA*eG*eA; antisense) [compound 530987] | 0% | –
10 | 530989 (eT*e[5mC]*eT*e[5mC]*e[5mC]*dT*d[5mC]*d[5mC]*dA*dA*dA*dG*dT*d[5mC]*dA*eA*e[5mC]*eT*e[5mC]*e[5mC]; antisense) [compound 530989] | 28% | –
11 | 530990 (eA*eT*eT*e[5mC]*eT*dT*d[5mC]*dT*d[5mC]*d[5mC]*dT*d[5mC]*d[5mC]*dA*dA*eA*eG*eT*e[5mC]*eA; antisense) [compound 530990] | 32% | –
12 | 530991 (eA*eT*eT*e[5mC]*eA*dA*dT*dT*d[5mC]*dT*dT*d[5mC]*dT*d[5mC]*d[5mC]*eT*e[5mC]*e[5mC]*eA*eA; antisense) [compound 530991] | 43% | –
13 | 530993 (e[5mC]*eA*eA*eA*e[5mC]*dA*dT*dT*d[5mC]*dA*d[5mC]*dT*d[5mC]*d[5mC]*dT*eT*eT*eA*eA*e[5mC]; antisense) [compound 530993] | 30% | –
14 | 530994 (e[5mC]*eT*eT*eG*eG*d[5mC]*dA*dA*dA*d[5mC]*dA*dT*dT*d[5mC]*dA*e[5mC]*eT*e[5mC]*e[5mC]*eT; antisense) [compound 530994] | 50% | –
15 | 530995 (eA*eG*eT*e[5mC]*eT*d[5mC]*dT*dT*dG*dG*d[5mC]*dA*dA*dA*d[5mC]*eA*eT*eT*e[5mC]*eA; antisense) [compound 530995] | 49% | –
16 | 530996 (eT*eG*eA*e[5mC]*eA*dG*d[5mC]*dG*dA*dA*dT*d[5mC]*dA*dT*d[5mC]*eT*eT*eT*eG*eT; antisense) [compound 530996] | 51% | –
17 | 530997 (eA*eA*eA*eA*e[5mC]*dT*dG*dA*d[5mC]*dA*dG*d[5mC]*dG*dA*dA*eT*e[5mC]*eA*eT*e[5mC]; antisense) [compound 530997] | 39% | –
18 | 530998 (eA*eG*eT*eG*eA*dA*dA*dA*dA*d[5mC]*dT*dG*dA*d[5mC]*dA*eG*e[5mC]*eG*eA*eA; antisense) [compound 530998] | 0% | –
19 | 530999 (e[5mC]*eA*eG*eT*e[5mC]*dT*dT*d[5mC]*dT*dG*dG*dG*dA*dG*dT*eA*eA*eA*eG*eA; antisense) [compound 530999] | 31% | –
20 | 531000 (eA*eA*eG*eA*eA*dA*d[5mC]*dA*d[5mC]*dT*dT*dA*d[5mC]*dA*d[5mC]*eT*eT*e[5mC]*eT*e[5mC]; antisense) [compound 531000] | 1% | –
21 | 531001 (eA*eG*eA*eT*eA*dA*dT*d[5mC]*dT*dT*dA*dA*dG*dA*dA*eA*e[5mC]*eA*e[5mC]*eT; antisense) [compound 531001] | 44% | –
22 | 531003 (eA*eA*e[5mC]*e[5mC]*eA*dG*dA*dG*d[5mC]*dT*d[5mC]*d[5mC]*d[5mC]*dT*dT*eG*eT*eG*eT*e[5mC]; antisense) [compound 531003] | 49% | –

Row | Substance | % inhibition (Table 1) | % inhibition (Table 2)
23 | 531006 (eG*e[5mC]*eT*eT*eG*dT*dT*dT*dT*dT*dG*dT*dT*dG*dT*eG*e[5mC]*eA*eG*eA; antisense) [compound 531006] | 49% | –
24 | 531007 (eA*eA*e[5mC]*eA*e[5mC]*dA*dA*dT*dT*dG*d[5mC]*dT*dT*d[5mC]*dT*eT*eG*eG*eA*eG; antisense) [compound 531007] | – | 51%
25 | 531008 (eT*eG*e[5mC]*eT*eG*dG*dA*dA*dG*dA*dT*dG*dT*dT*d[5mC]*eA*eT*eG*eT*eG; antisense) [compound 531008] | – | 51%
26 | 531009 (eT*eT*eT*eG*eT*dT*d[5mC]*d[5mC]*dT*d[5mC]*d[5mC]*dA*dA*d[5mC]*dA*eA*eT*eG*e[5mC]*eG; antisense) [compound 531009] | – | 65%
27 | 531010 (eA*eA*eG*eA*eG*dT*dT*dT*dG*dT*dT*d[5mC]*d[5mC]*dT*d[5mC]*e[5mC]*eA*eA*e[5mC]*eA; antisense) [compound 531010] | – | 52%
28 | 531011 (e[5mC]*e[5mC]*eA*eA*eG*dA*dA*dG*dA*dG*dT*dT*dT*dG*dT*eT*e[5mC]*e[5mC]*eT*e[5mC]; antisense) [compound 531011] | – | 0%
29 | 531012 (eT*e[5mC]*eT*e[5mC]*e[5mC]*d[5mC]*d[5mC]*dA*dA*dG*dA*dA*dG*dA*dG*eT*eT*eT*eG*eT; antisense) [compound 531012] | – | 48%
30 | 531013 (e[5mC]*e[5mC]*eA*eG*eG*dG*d[5mC]*d[5mC]*dA*d[5mC]*dT*d[5mC]*dT*d[5mC]*d[5mC]*e[5mC]*e[5mC]*eA*eA*eG; antisense) [compound 531013] | – | 56%
31 | 531014 (eA*eG*e[5mC]*eT*eT*d[5mC]*dA*d[5mC]*d[5mC]*dT*dG*d[5mC]*dA*dG*dG*e[5mC]*eT*e[5mC]*eA*e[5mC]; antisense) [compound 531014] | – | 0%
32 | 531015 (eT*eA*eT*eG*eA*dG*dT*dG*dA*d[5mC]*d[5mC]*d[5mC]*dT*d[5mC]*d[5mC]*eA*e[5mC]*eA*e[5mC]*eA; antisense) [compound 531015] | – | 52%
33 | 531016 (eT*eG*eT*e[5mC]*e[5mC]*dT*dA*dT*dG*dA*dG*dT*dG*dA*d[5mC]*e[5mC]*e[5mC]*eT*e[5mC]*e[5mC]; antisense) [compound 531016] | – | 39%
34 | 531017 (eA*e[5mC]*eT*eG*eG*dT*dG*dT*d[5mC]*d[5mC]*dT*dA*dT*dG*dA*eG*eT*eG*eA*e[5mC]; antisense) [compound 531017] | – | 31%
35 | 531018 (eG*eA*e[5mC]*e[5mC]*e[5mC]*dA*d[5mC]*dT*dG*dG*dT*dG*dT*d[5mC]*d[5mC]*eT*eA*eT*eG*eA; antisense) [compound 531018] | – | 54%
36 | 531019 (eG*eT*eG*eA*eG*dG*dA*d[5mC]*d[5mC]*d[5mC]*dA*d[5mC]*dT*dG*dG*eT*eG*eT*e[5mC]*e[5mC]; antisense) [compound 531019] | – | 28%
37 | 531020 (eA*eA*eG*e[5mC]*e[5mC]*d[5mC]*dA*dT*d[5mC]*dA*dA*dA*dG*d[5mC]*dA*eG*eT*eG*eG*eG; antisense) [compound 531020] | – | 0%
38 | 531021 (eG*eT*e[5mC]*eT*eG*dA*d[5mC]*dA*dG*dA*dT*dT*dT*dA*dA*eA*eA*eT*eG*e[5mC]; antisense) [compound 531021] | – | 50%
39 | 531023 (e[5mC]*eT*eT*eT*eT*dG*dT*dA*dA*dT*dG*dT*d[5mC]*dT*dG*eA*e[5mC]*eA*eG*eA; antisense) [compound 531023] | – | 71%
40 | 531024 (eT*eT*eT*eA*eT*dT*dT*dG*dT*dG*dA*dG*dA*dA*dA*eG*eG*eT*eG*eT; antisense) [compound 531024] | – | 69%
41 | 531025 (eT*e[5mC]*eT*e[5mC]*eT*dT*dT*dT*dA*dT*dT*dT*dG*dT*dG*eA*eG*eA*eA*eA; antisense) [compound 531025] | – | 34%
42 | 531027 (antisense eA*eA*eA*eG*eG*dA*dG*d[5mC]*d[5mC]*dT*dG*dG*dA*dG*dT*eT*eT*eT*eA*eT) [compound 531027] | – | 0%
43 | 531028 (antisense eA*eA*eT*eT*e[5mC]*dA*dA*dA*dG*dG*dA*dG*d[5mC]*d[5mC]*dT*eG*eG*eA*eG*eT) [compound 531028] | – | 56%
44 | 531029 (antisense eA*eG*eT*eG*eT*dA*dA*dT*dT*d[5mC]*dA*dA*dA*dG*dG*eA*eG*e[5mC]*e[5mC]*eT) [compound 531029] | – | 59%
